Tested on: GLP-1R-expressing HEK293 cells (phosphoproteome)
Experiment: Phosphoproteomics time course (5, 15, 30, 60 min) in GLP-1R-expressing cells
Type: cell-based, human
Method: P values were calculated by a two-sided unpaired t-test.
HEK293 cells (350,000 cells/mL) were transfected in suspension using 3 μg of linear PEI (MW 25,000) per 1 μg of plasmid DNA and seeded onto poly-D-lysine-coated 60 mm dishes at a density of 1,750,000 cells per dish. After a 24-h incubation, cells were washed twice with PBS and placed in starvation media (DMEM with penicillin/streptomycin). After a 48-h incubation, cells were washed twice with HBSS and maintained in the same buffer. […] Cell extracts were prepared as previously described[64]–[66]. In short, 200 μL of the lysis buffer preheated at 95 °C (4% sodium dodecyl sulfate in 50 mM Tris adjusted to pH 8.5) was added to the cells. The samples were then denatured at 95 °C for 10 min, placed on ice and then sonicated using a probe sonicator (3 sec on, 3 sec off pulse, 1 min, 30% amplitude) (Branson). Lysate protein concentration was determined using the Pierce bicinchoninic acid assay kit (Thermo Fisher Scientific) according to the manufacturer’s instructions. The lysates were reduced using 5 mM dithiothreitol for 1 h at room temperature and alkylated using 15 mM iodoacetamide for 1 h at room temperature in the dark. Proteins were precipitated and digested on beads using MagReSyn Amine magnetic beads (ReSyn Biosciences) according to the manufacturer’s instructions. Protein digestion was conducted overnight at 37 °C with lysyl endopeptidase (LysC, Wako) (1:150 LysC/protein, w/w) and trypsin (1:300 trypsin/protein, w/w). 20% TFA, 2 M glycolic acid in 80% ACN were added to the samples at a 1:1 ratio for phosphopeptide enrichment using MagReSyn TiO2 magnetic beads (ReSyn Biosciences) according to the manufacturer’s instructions. The enriched phosphopeptides were dried overnight in a SpeedVac, resuspended into 5% formic acid (FA), desalted using StageTip (Thermo Fisher Scientific) according to the manufacturer’s instructions and dried in a SpeedVac. The experiment was performed in biological triplicates.
All parameters and settings regarding the acquisition of the proteomics data can be found in Supplementary Data 11, 12. For data acquisition, the instrument was set to peptide mode, with a trapping pressure set as low (2mTorr). An EASY-Spray Source (Thermo Fisher Scientific) was used and the column temperature was maintained with the integrated, temperature-controlled heater at 55 °C throughout the experiment. For the data presented in Fig. 5d, the column was heated at 50 °C following the manufacturer’s instructions (IonOpticks).
Acquired raw files were converted to mzML format by MSConvert (version 3.0.21258)[67] applying peak picking of the mass spectra with the vendor-provided algorithm (Thermo Fisher Scientific). The mzML files were analyzed using the FragPipe GUI v18 for both library and DIA search. […] Trypsin with up to 2 missed cleavages was set as digestion enzyme, oxidation of methionine, acetylation of the N-terminus and phosphorylation on serine, threonine and tyrosine (maximal occurrence was set to three) were set as variable modifications. Carbamidomethylation of cysteine residues was set as a fixed modification. Peptide length was restricted to 7 to 50 amino acids, and 500 to 5000 Da. The precursor tolerance was set to ±20 ppm, fragment mass tolerance to 20 ppm and MSBooster was enabled. The resulting peptide-spectrum matches were adjusted to a 1% false discovery rate with Percolator[69] as part of the Philosopher toolkit (v4.4)[70] and converted to a spectra library. DIA files were analyzed by DIA-NN 1.8.1[71], [72] using the previously generated library and monitor-command mode. Peptide quantification was performed based on the fragment elution profiles from the MS2 level (area under the curve).
All further data processing was performed in R (version 4.2.1). Only phosphopeptides with a localization score of at least 0.75 were considered for further analysis. […]

[1] = 15min, relative to time-matched vehicle condition, p.value […], passed.all.criteria 0
[2] = 60min, relative to time-matched vehicle condition, p.value […], passed.all.criteria 0

## N#Cc1ccc(COc2cccc(C3CCN(Cc4nc5ccc(C(=O)O)cc5n4C[C@@H]4CCO4)CC3)n2)c(F)c1 [Danuglipron]
1 μM
  regulation of RAB1B and α-synuclein phosphorylation, in words: significantly regulated by danuglipron
1 μM, 30 min
  number of phosphopeptides overlapping between danuglipron and semaglutide treatments: 8
1 μM, 30 min, drug-specific, vs vehicle
  number of significantly altered phosphopeptides: 220
5min, repA
  Normalized phosphoproteomics data, ESYT2 S691 (A0FGR8): 19.6049
  Normalized phosphoproteomics data, HMX3 S60 (A6NHT5): 20.3906
  Normalized phosphoproteomics data, HNRNPA1L3 Y250 (A0A2R8Y4L2): 20.6785
  Normalized phosphoproteomics data, POM121C T710 (A8CG34): 20.0234
  Normalized phosphoproteomics data, SBNO1 S794 (A3KN83): 17.9318
5min, repB
  Normalized phosphoproteomics data, ESYT2 S691 (A0FGR8): 19.6976
  Normalized phosphoproteomics data, HMX3 S60 (A6NHT5): 20.283
  Normalized phosphoproteomics data, HNRNPA1L3 Y250 (A0A2R8Y4L2): 20.3164
  Normalized phosphoproteomics data, POM121C T710 (A8CG34): 20.7371
  Normalized phosphoproteomics data, SBNO1 S794 (A3KN83): 18.211
5min, repC
  Normalized phosphoproteomics data, ESYT2 S691 (A0FGR8): 21.1682
  Normalized phosphoproteomics data, HMX3 S60 (A6NHT5): 19.9991
  Normalized phosphoproteomics data, HNRNPA1L3 Y250 (A0A2R8Y4L2): 20.6414
  Normalized phosphoproteomics data, POM121C T710 (A8CG34): 20.3991
  Normalized phosphoproteomics data, SBNO1 S794 (A3KN83): 18.5685
5min, relative to time-matched vehicle condition, p.value 0.0181801, passed.all.criteria 0
  log2.foldchange, FOXK2 S30 (Q01167): 0.5529
5min, relative to time-matched vehicle condition, p.value 0.0905175, passed.all.criteria 0
  log2.foldchange, EIF3J S11 (O75822): -0.3791
5min, relative to time-matched vehicle condition, p.value 0.889419, passed.all.criteria 0
  log2.foldchange, SCFD1 S14 (Q8WVM8): 0.04613
5min, relative to time-matched vehicle condition, p.value 0.907346, passed.all.criteria 0
  log2.foldchange, CABLES2 T26;S27 (Q9BTV7): 0.07188
5min, relative to time-matched vehicle condition, p.value […], passed.all.criteria 0
  log2.foldchange, POLE4 S25 (Q9NR33): 0.5824
15min, repA
  Normalized phosphoproteomics data, ESYT2 S691 (A0FGR8): 18.6451
  Normalized phosphoproteomics data, HMX3 S60 (A6NHT5): 20.5059
  Normalized phosphoproteomics data, HNRNPA1L3 Y250 (A0A2R8Y4L2): 20.4577
  Normalized phosphoproteomics data, POM121C T710 (A8CG34): 20.5017
  Normalized phosphoproteomics data, SBNO1 S794 (A3KN83): 18.6084
15min, repB
  Normalized phosphoproteomics data, ESYT2 S691 (A0FGR8): 18.4413
  Normalized phosphoproteomics data, HMX3 S60 (A6NHT5): 22.3446
  Normalized phosphoproteomics data, HNRNPA1L3 Y250 (A0A2R8Y4L2): 20.4067
  Normalized phosphoproteomics data, POM121C T710 (A8CG34): 18.6564
  Normalized phosphoproteomics data, SBNO1 S794 (A3KN83): 17.9968
15min, repC
  Normalized phosphoproteomics data, ESYT2 S691 (A0FGR8): 20.8902
  Normalized phosphoproteomics data, HMX3 S60 (A6NHT5): 20.8902
  Normalized phosphoproteomics data, HNRNPA1L3 Y250 (A0A2R8Y4L2): 20.9108
  Normalized phosphoproteomics data, POM121C T710 (A8CG34): 19.3031
  Normalized phosphoproteomics data, SBNO1 S794 (A3KN83): 18.3915
15min, relative to time-matched vehicle condition, p.value 0.0462694, passed.all.criteria 0
  log2.foldchange, EIF3J S11 (O75822): 0.3639
15min, relative to time-matched vehicle condition, p.value 0.844107, passed.all.criteria 0
  log2.foldchange, SCFD1 S14 (Q8WVM8): 0.06372
[1]
  log2.foldchange, CABLES2 T26;S27 (Q9BTV7): 0.288
  log2.foldchange, FOXK2 S30 (Q01167): 0.1878
  log2.foldchange, POLE4 S25 (Q9NR33): -0.08464
30min, repA
  Normalized phosphoproteomics data, ESYT2 S691 (A0FGR8): 21.4861
  Normalized phosphoproteomics data, HMX3 S60 (A6NHT5): 20.1311
  Normalized phosphoproteomics data, HNRNPA1L3 Y250 (A0A2R8Y4L2): 20.8036
  Normalized phosphoproteomics data, POM121C T710 (A8CG34): 20.7324
  Normalized phosphoproteomics data, SBNO1 S794 (A3KN83): 18.5741
30min, repB
  Normalized phosphoproteomics data, ESYT2 S691 (A0FGR8): 20.3489
  Normalized phosphoproteomics data, HMX3 S60 (A6NHT5): 20.2063
  Normalized phosphoproteomics data, HNRNPA1L3 Y250 (A0A2R8Y4L2): 19.9638
  Normalized phosphoproteomics data, POM121C T710 (A8CG34): 20.3008
  Normalized phosphoproteomics data, SBNO1 S794 (A3KN83): 18.1584
30min, repC
  Normalized phosphoproteomics data, ESYT2 S691 (A0FGR8): 19.608
  Normalized phosphoproteomics data, HMX3 S60 (A6NHT5): 21.342
  Normalized phosphoproteomics data, HNRNPA1L3 Y250 (A0A2R8Y4L2): 21.4798
  Normalized phosphoproteomics data, POM121C T710 (A8CG34): 19.571
  Normalized phosphoproteomics data, SBNO1 S794 (A3KN83): 18.2269
30min, relative to time-matched vehicle condition, p.value 0.0332159, passed.all.criteria 0
  log2.foldchange, POLE4 S25 (Q9NR33): 0.4522
30min, relative to time-matched vehicle condition, p.value 0.0661459, passed.all.criteria 0
  log2.foldchange, CABLES2 T26;S27 (Q9BTV7): -0.4521
30min, relative to time-matched vehicle condition, p.value 0.177246, passed.all.criteria 0
  log2.foldchange, TRAF2 T7;S11 (Q12933): 1.124
30min, relative to time-matched vehicle condition, p.value 0.184134, passed.all.criteria 0
  log2.foldchange, FOXK2 T13 (Q01167): -0.3505
30min, relative to time-matched vehicle condition, p.value […], passed.all.criteria 0
  log2.foldchange, SCFD1 S14 (Q8WVM8): -0.2911
60min, repA
  Normalized phosphoproteomics data, ESYT2 S691 (A0FGR8): 20.822
  Normalized phosphoproteomics data, HMX3 S60 (A6NHT5): 21.3332
  Normalized phosphoproteomics data, HNRNPA1L3 Y250 (A0A2R8Y4L2): 20.6441
  Normalized phosphoproteomics data, POM121C T710 (A8CG34): 20.5636
  Normalized phosphoproteomics data, SBNO1 S794 (A3KN83): 19.2753
60min, repB
  Normalized phosphoproteomics data, ESYT2 S691 (A0FGR8): 21.3269
  Normalized phosphoproteomics data, HMX3 S60 (A6NHT5): 22.1586
  Normalized phosphoproteomics data, HNRNPA1L3 Y250 (A0A2R8Y4L2): 20.7268
  Normalized phosphoproteomics data, POM121C T710 (A8CG34): 20.6117
  Normalized phosphoproteomics data, SBNO1 S794 (A3KN83): 18.9035
60min, repC
  Normalized phosphoproteomics data, ESYT2 S691 (A0FGR8): 21.6663
  Normalized phosphoproteomics data, HMX3 S60 (A6NHT5): 20.1861
  Normalized phosphoproteomics data, HNRNPA1L3 Y250 (A0A2R8Y4L2): 20.5504
  Normalized phosphoproteomics data, POM121C T710 (A8CG34): 19.5289
  Normalized phosphoproteomics data, SBNO1 S794 (A3KN83): 18.62
60min, relative to time-matched vehicle condition, p.value 0.629383, passed.all.criteria 0
  log2.foldchange, POLE4 S25 (Q9NR33): 0.05873
60min, relative to time-matched vehicle condition, p.value 0.819487, passed.all.criteria 0
  log2.foldchange, SCFD1 S14 (Q8WVM8): -0.06624
[2]
  log2.foldchange, CABLES2 T26;S27 (Q9BTV7): -0.3341
  log2.foldchange, EIF3J S11 (O75822): -0.413
  log2.foldchange, TRAF2 T7;S11 (Q12933): 0.4682

Source: article PMC10562414, “GLP-1R signaling neighborhoods associate with the susceptibility to adverse drug reactions of incretin mimetics” (Nature Communications, 2023)
